Test results from US20250230153A1, “2,3-DIHYDROBENZO[B][1,4]DIOXIN-6-YL CONTAINING COMPOUNDS USEFUL AS IMMUNOMODULATORS” (BRISTOL-MYERS SQUIBB COMPANY, priority 2021, published 2025).

These molecules were tested against PD-1/PD-L1 (Homo sapiens (Human), UniProt Q9NZQ7) (assay: PD-1/PD-L1 Homogenous Time-Resolved Fluorescence (HTRF) binding assay). Conditions: PD-1-Ig (20 nM final)/PD-L1-His (10 nM final) binding assay.
Procedure, shortened: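 Compounds pre-incubated 15 min with human PD-L1(18-239)-His (10 nM final), then 15 min with PD-1(25-167)-Ig (20 nM final), in dPBS with 0.1% BSA and 0.05% Tween-20. Detection with Eu-cryptate anti-Ig (1 nM) and APC anti-His (20 nM) after 30 min equilibration; 665/620 nm ratio read.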

Sequence of PD-1/PD-L1 (Q9NZQ7 18-239): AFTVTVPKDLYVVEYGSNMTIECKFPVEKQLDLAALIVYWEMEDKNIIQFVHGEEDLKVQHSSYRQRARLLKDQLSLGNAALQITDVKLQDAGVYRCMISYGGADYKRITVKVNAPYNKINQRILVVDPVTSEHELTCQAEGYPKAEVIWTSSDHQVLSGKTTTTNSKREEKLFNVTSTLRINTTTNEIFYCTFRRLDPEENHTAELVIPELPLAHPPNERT

| Structure (SMILES) | IC50 [nM] |
| --- | --- |
| Cc1c(COc2cc(OCc3cncc(S(=O)(=O)NCCC(=O)O)c3)c(CN[C@@](C)(CO)C(=O)O)cc2Cl)cccc1-c1ccc2c(c1)OCCO2 [Example 1020, (S)-2-((2-((5-(N-(2-Carboxyethyl)sulfamoyl)pyridin-3-yl)methoxy)-5-chloro-4-((3-(2,3-dihydrobenzo[b]1[1,4]dioxin-6-yl)-2-methylbenzyl)oxy)benzyl)amino)-3-hydroxy-2-methylpropanoic acid] | 3.1 |
| Cc1c(COc2cc(OCCN3CC[C@@H](O)C3)c(CN3CCCC[C@H]3C(=O)O)cc2Cl)cccc1-c1ccc2c(c1)OCCO2 [Example 1023, (S)-1-(5-Chloro-4-((3-(2,3-dihydrobenzo[b][1,4]dioxin-6-yl)-2-methylbenzyl)oxy)-2-(2-((R)-3-hydroxypyrrolidin-1-yl)ethoxy)benzyl)piperidine-2-carboxylic acid] | 4.6 |
| COC(=O)C1(O)CCN(CCOc2cc(OCc3cccc(-c4ccc5c(c4)OCCO5)c3C)c(Cl)cc2CN2CCCC[C@H]2C(=O)O)CC1 [Example 1051, (S)-1-(5-Chloro-4-((3-(2,3-dihydrobenzo[b][1,4]dioxin-6-yl)-2-methylbenzyl)oxy)-2-(2-(4-hydroxy-4-(methoxycarbonyl)piperidin-1-yl)ethoxy)benzyl)piperidine-2-carboxylic acid] | 1 |
| Cc1c(COc2cc(OCc3cncc(S(N)(=O)=O)c3)c(CN[C@@](C)(CO)C(=O)O)cc2Cl)cccc1-c1ccc2c(c1)OCCO2 [Example 1019, (S)-2-((5-Chloro-4-((3-(2,3-dihydrobenzo[b][1,4]dioxin-6-yl)-2-methylbenzyl)oxy)-2-((5-sulfamoylpyridin-3-yl)methoxy)benzyl)amino)-3-hydroxy-2-methylpropanoic acid] | 4.1 |
| Cc1c(COc2cc(OCC3CCCCC3)c(CN3CCCC[C@H]3C(=O)O)cc2Cl)cccc1-c1ccc2c(c1)OCCO2 [Example 1040, (S)-1-(5-Chloro-2-(cyclohexylmethoxy)-4-((3-(2,3-dihydrobenzo[b][1,4]dioxin-6-yl)-2-methylbenzyl)oxy)benzyl)piperidine-2-carboxylic acid] | 164 |
| Cc1c(COc2cc(OCC(=O)N3CCS(=O)(=O)CC3)c(CN3CCCC[C@H]3C(=O)O)cc2Cl)cccc1-c1ccc2c(c1)OCCO2 [Example 1061, (S)-1-(5-chloro-4-((3-(2,3-dihydrobenzo[b][1,4]dioxin-6-yl)-2-methylbenzyl)oxy)-2-(2-(1,1-dioxidothiomorpholino)-2-oxoethoxy)benzyl)piperidine-2-carboxylic acid] | 455 |
| Cc1c(COc2cc(OC[C@@H](C)CO)c(CNC(C)(CO)CO)cc2Cl)cccc1-c1ccc2c(c1)OCCO2 [Example 1036, (S)-2-((5-Chloro-4-((3-(2,3-dihydrobenzo[b][1,4]dioxin-6-yl)-2-methylbenzyl)oxy)-2-(3-hydroxy-2-methylpropoxy)benzyl)amino)-2-methylpropane-1,3-diol] | 4.6 |
| Cc1c(COc2cc(OCCN3CC[C@@H](O)C3)c(CNC(C)(CO)CO)cc2Cl)cccc1-c1ccc2c(c1)OCCO2 [Example 1024, (R)-2-((5-Chloro-4-((3-(2,3-dihydrobenzo[b][1,4]dioxin-6-yl)-2-methylbenzyl)oxy)-2-(2-(3-hydroxypyrrolidin-1-yl)ethoxy)benzyl)amino)-2-methylpropane-1,3-diol] | 0.5 |
| Cc1c(COc2cc(OCC3CCCN(C)C3)c(CN[C@@H](CO)C(=O)O)cc2Cl)cccc1-c1ccc2c(c1)OCCO2 (stereo partly drawn) [Example 2004, (2S)-2-((5-chloro-4-((3-(2,3-dihydrobenzo[b][1,4]dioxin-6-yl)-2-methylbenzyl)oxy)-2-((1-methylpiperidin-3-yl)methoxy)benzyl)amino)-3-hydroxypropanoic acid] | 5.8 |
| Cc1c(COc2cc(OCC3CCC3)c(CN[C@](C)(CO)C(=O)O)cc2Cl)cccc1-c1ccc2c(c1)OCCO2 [Example 1048, (R)-2-((5-chloro-2-(cyclobutylmethoxy)-4-((3-(2,3-dihydrobenzo[b][1,4]dioxin-6-yl)-2-methylbenzyl)oxy)benzyl)amino)-3-hydroxy-2-methylpropanoic acid] | 11.1 |
| Cc1c(COc2cc(OCc3cnn(-c4ccccn4)c3)c(CN[C@@](C)(CO)C(=O)O)cc2Cl)cccc1-c1ccc2c(c1)OCCO2 [Example 1011, (S)-2-((5-Chloro-4-((3-(2,3-dihydrobenzo[b][1,4]dioxin-6-yl)-2-methylbenzyl)oxy)-2-((1-(pyridin-2-yl)-1H-pyrazol-4-yl)methoxy)benzyl)amino)-3-hydroxy-2-methylpropanoic acid] | 11 |
| Cc1c(COc2cc(OCCN3CCOCC3)c(CN3CCCC[C@H]3C(=O)O)cc2Cl)cccc1-c1ccc2c(c1)OCCO2 [Example 1038, (S)-1-(5-Chloro-4-((3-(2,3-dihydrobenzo[b][1,4]dioxin-6-yl)-2-methylbenzyl)oxy)-2-(2-morpholinoethoxy)benzyl)piperidine-2-carboxylic acid] | 5.7 |
| CCn1cc(COc2cc(OCc3cccc(-c4ccc5c(c4)OCCO5)c3C)c(Cl)cc2CN[C@H](CO)C(=O)O)cn1 [Example 1005, (R)-2-((5-Chloro-4-((3-(2,3-dihydrobenzo[b][1,4]dioxin-6-yl)-2-methylbenzyl)oxy)-2-((1-ethyl-1H-pyrazol-4-yl)methoxy)benzyl)amino)-3-hydroxypropanoic acid] | 7.9 |
| Cc1c(COc2cc(OCCCN(C)C)c(CN[C@@](C)(CO)C(=O)O)cc2Cl)cccc1-c1ccc2c(c1)OCCO2 [Example 2001, (S)-2-((5-chloro-4-((3-(2,3-dihydrobenzo[b][1,4]dioxin-6-yl)-2-methylbenzyl)oxy)-2-(3-(dimethylamino)propoxy)benzyl)amino)-3-hydroxy-2-methylpropanoic acid] | 9.5 |
| Cc1c(COc2cc(OCCN3CCOCC3)c(CNC(C)(CO)CO)cc2Cl)cccc1-c1ccc2c(c1)OCCO2 [Example 1039, 2-((5-Chloro-4-((3-(2,3-dihydrobenzo[b][1,4]dioxin-6-yl)-2-methylbenzyl)oxy)-2-(2-morpholinoethoxy)benzyl)amino)-2-methylpropane-1,3-diol] | 2.3 |
| Cc1c(COc2cc(OCCN3CCC(O)(C(=O)O)CC3)c(CN[C@](C)(CO)C(=O)O)cc2Cl)cccc1-c1ccc2c(c1)OCCO2 [Example 1055, (R)-1-(2-(2-(((2-Carboxy-1-hydroxypropan-2-yl)amino)methyl)-4-chloro-5-((3-(2,3-dihydrobenzo[b]1[1,4]dioxin-6-yl)-2-methylbenzyl)oxy)phenoxy)ethyl)-4-hydroxypiperidine-4-carboxylic acid] | 0.4 |
| Cc1c(COc2cc(OCc3cncc(C(=O)NCCC(=O)O)c3)c(CN3CC[C@H](O)C3)cc2Cl)cccc1-c1ccc2c(c1)OCCO2 [Example 2008, (S)-3-(5-((4-chloro-5-((3-(2,3-dihydrobenzo[b][1,4]dioxin-6-yl)-2-methylbenzyl)oxy)-2-((3-hydroxypyrrolidin-1-yl)methyl)phenoxy)methyl)nicotinamido)propanoic acid] | 5.2 |
| Cc1c(COc2cc(OCCN3CC[C@@H](O)C3)c(CN[C@](C)(CO)C(=O)O)cc2Cl)cccc1-c1ccc2c(c1)OCCO2 [Example 1022, (R)-2-((5-Chloro-4-((3-(2,3-dihydrobenzo[b][1,4]dioxin-6-yl)-2-methylbenzyl)oxy)-2-(2-((R)-3-hydroxypyrrolidin-1-yl)ethoxy)benzyl)amino)-3-hydroxy-2-methylpropanoic acid] | 2.7 |
| Cc1c(COc2cc(OCC3CCOCC3)c(CN[C@](C)(CO)C(=O)O)cc2Cl)cccc1-c1ccc2c(c1)OCCO2 [Example 1045, (R)-2-((5-Chloro-4-((3-(2,3-dihydrobenzo[b][1,4]dioxin-6-yl)-2-methylbenzyl)oxy)-2-((tetrahydro-2H-pyran-4-yl)methoxy)benzyl)amino)-3-hydroxy-2-methylpropanoic acid] | 4.4 |
| Cc1c(COc2cc(OC[C@H](C)CO)c(CNC(C)(CO)CO)cc2Cl)cccc1-c1ccc2c(c1)OCCO2 [Example 1033, (R)-2-((5-Chloro-4-((3-(2,3-dihydrobenzo[b][1,4]dioxin-6-yl)-2-methylbenzyl)oxy)-2-(3-hydroxy-2-methylpropoxy)benzyl)amino)-2-methylpropane-1,3-diol] | 3.9 |
| Cc1c(COc2cc(OCc3cncc(SCCC(=O)O)c3)c(CN[C@@](C)(CO)C(=O)O)cc2Cl)cccc1-c1ccc2c(c1)OCCO2 [Example 1014, (S)-2-((2-((5-((2-Carboxyethyl)thio)pyridin-3-yl)methoxy)-5-chloro-4-((3-(2,3-dihydrobenzo[b][1,4]dioxin-6-yl)-2-methylbenzyl)oxy)benzyl)amino)-3-hydroxy-2-methylpropanoic acid] | 6.6 |
